Experimental data reported in patent publication US12398179B2, “Nanomolar peptides and derivatives to differentially modulate ephrin receptors” (Sanford Burnham Prebys Medical Discovery Institute, priority 2019, dated 2025).
Values after ≈ are worked out from the molar mass of the structure shown. Non-standard residues stand in square brackets, D forms with d. Residues, ends and D or L forms follow the SMILES beside them. No end group written: not given here. *: point of attachment. Biotin = O=C1N[C@H]2[C@H](CS[C@H]2CCCCC(=O)*)N1; βAla = NCCC(=O)O

Key:
EphA2 = EphA2 (Homo sapiens, UniProt P29317); assay: ELISA: inhibition of ephrin-A5 AP binding to immobilized EphA2 Fc; set-up: the immobilized EphA2 extracellular domain fused to the Fc portion of an antibody (EphA2 Fc); conditions: average ± SE
Procedure: (FIG. 2A) Representative ELISAs comparing the ability of the peptides to inhibit binding of ephrin-A5 fused to alkaline phosphatase (ephrin-A5 AP) to the immobilized EphA2 extracellular domain fused to the Fc portion of an antibody (EphA2 Fc). The graphs show averages±SE from triplicate measurements from a representative experiment. IC50 values calculated from the fitted curves in each experiment are shown. All concentrations are nM and the 100 nM peptide concentration is outlined in red. (FIG. 2B) Ephrin-A5 AP binding to the indicated EphA receptors and ephrin-B2 AP binding to the indicated EphB receptors in the presence of the indicated peptide, normalized to ephrin binding without peptide. The bars show averages±SE from triplicate measurements.

[1] = Peptide solubility in PBS/H2O
EphA2 LBD = target: T1, EphA2 LBD (Homo sapiens, UniProt P29317); assay: Isothermal titration calorimetry (ITC) of peptide binding; conditions: 1 mM biotin
T1 construct: EphA2 LBD (residues 28-200); made in house; host or cells: E. coli Origami 2 (DE3)
Procedure: For ITC, all peptides were dissolved in DMSO and both the EphA2 LBD and the peptides were diluted to obtain a final buffer containing 9.5 mM HEPES, pH 7.9, 95 mM NaCl, and 5% DMSO. […] Two-microliter aliquots of a peptide solution were injected into the cell containing 205 μL EphA2 LBD. 200-400 μM peptides were titrated into 20-40 μM EphA2 LBD. Experimental data were analyzed using the Origin software package (Microcal). The integrated values for the reaction heats were normalized to the amount of injected peptide after blank subtraction.

[2] = water, Solubility in H2O (mg/ml), H2O (second figure of cell)
[3] = PBS, Solubility in PBS (mg/ml), PBS (first figure of cell)

EphA2, sequence (P29317 24-537 limits assumed, species assumed): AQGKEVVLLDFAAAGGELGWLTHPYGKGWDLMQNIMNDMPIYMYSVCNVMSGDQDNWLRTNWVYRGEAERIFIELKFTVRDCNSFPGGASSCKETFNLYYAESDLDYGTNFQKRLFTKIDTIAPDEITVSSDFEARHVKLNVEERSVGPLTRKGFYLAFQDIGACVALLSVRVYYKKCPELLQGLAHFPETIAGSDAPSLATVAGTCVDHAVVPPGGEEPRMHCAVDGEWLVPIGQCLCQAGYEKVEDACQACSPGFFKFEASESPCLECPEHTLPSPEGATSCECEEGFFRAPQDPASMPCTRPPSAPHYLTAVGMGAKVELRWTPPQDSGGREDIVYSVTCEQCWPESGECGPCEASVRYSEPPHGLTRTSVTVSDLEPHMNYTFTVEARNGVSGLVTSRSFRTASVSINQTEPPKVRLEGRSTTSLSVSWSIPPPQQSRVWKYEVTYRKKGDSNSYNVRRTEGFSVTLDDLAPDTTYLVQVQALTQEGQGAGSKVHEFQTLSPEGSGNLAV
T1 sequence (P29317 28-200): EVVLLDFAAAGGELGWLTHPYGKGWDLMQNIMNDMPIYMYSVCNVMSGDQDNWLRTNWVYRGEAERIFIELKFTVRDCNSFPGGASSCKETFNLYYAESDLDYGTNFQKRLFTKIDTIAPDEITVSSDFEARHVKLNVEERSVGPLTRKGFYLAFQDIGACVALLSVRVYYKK

Molecule | IC50 (EphA2) [nM] | solubility [1, 2] [µg/mL] | solubility [1, 3] [µg/mL] | solubility ([1]; H2O, Solubility in H2O (mg/ml), H2O (second figure of cell)) [µg/mL] | binding to the EphA2 LBD by ITC (in words) (EphA2 LBD)
CC(C)C[C@H](NC(=O)[C@H](Cc1c[nH]c2ccccc12)NC(=O)CCN)C(=O)N[C@@H](C)C(=O)N[C@@H](Cc1ccc(O)cc1)C(=O)N1CCC[C@H]1C(=O)N[C@@H](CC(=O)O)C(=O)N[C@@H](CO)C(=O)N[C@H](C(=O)N1CCC[C@H]1C(=O)N[C@@H](Cc1ccc(O)cc1)C(=O)N[C@@H](CCCCNC(=O)CCCC[C@@H]1SC[C@@H]2NC(=O)N[C@@H]21)C(=O)O)C(C)C [βA-WLA-YK-bio] (H-[βAla]WLAYPDSVPYK(Biotin)-OH; N-terminus and C-terminus assumed) | 730 ± 90 | – | – | – | –
WLAYPDSVPM-NH2 [WLAam] | 1500 | – | – | – | –
CC(C)C[C@H](NC(=O)[C@H](Cc1c[nH]c2ccccc12)NC(=O)CCN)C(=O)N[C@@H](C)C(=O)N[C@@H](Cc1ccc(O)cc1)C(=O)N1CCC[C@H]1C(=O)N[C@@H](CC(=O)O)C(=O)N[C@@H](CO)C(=O)N[C@H](C(=O)N1CCC[C@H]1C(=O)N[C@@H](Cc1ccc(O)cc1)C(=O)N[C@@H](CO)C(=O)N1CCC[C@H]1C(=O)N[C@@H](CCCCNC(=O)CCCC[C@@H]1SC[C@@H]2NC(=O)N[C@@H]21)C(=O)O)C(C)C [βA-WLA-YSPK-bio] (H-[βAla]WLAYPDSVPYSPK(Biotin)-OH; N-terminus and C-terminus assumed) | 62 ± 3 | – | – | – | –
CC(C)C[C@H](NC(=O)[C@H](Cc1c[nH]c2ccccc12)NC(=O)CCN)C(=O)N[C@@H](C)C(=O)N[C@@H](Cc1ccc(O)cc1)C(=O)N1CCC[C@H]1C(=O)N[C@@H](CC(=O)O)C(=O)N[C@@H](CO)C(=O)N[C@H](C(=O)N1CCC[C@H]1C(=O)N[C@@H](Cc1ccc(O)cc1)C(N)=O)C(C)C [βA-WLA-Yam] (HELM PEPTIDE1{[bAla].W.L.A.Y.P.D.S.V.P.Y.[am]}$$$$V2.0; N-terminus assumed) | 410 ± 50 | 5000 (≈ 3.9 mM) | – | – | –
CC(C)C[C@H](NC(=O)[C@H](Cc1c[nH]c2ccccc12)NC(=O)CCN)C(=O)N[C@@H](C)C(=O)N[C@@H](Cc1ccc(O)cc1)C(=O)N1CCC[C@H]1C(=O)N[C@@H](CC(=O)O)C(=O)N[C@@H](CO)C(=O)N[C@H](C(=O)N1CCC[C@H]1C(=O)N[C@@H](Cc1ccc(O)cc1)C(=O)N[C@@H](CO)C(=O)N[C@@H](CCCCN)C(=O)O)C(C)C [βA-WLA-YSK] (HELM PEPTIDE1{[bAla].W.L.A.Y.P.D.S.V.P.Y.S.K}$$$$V2.0; N-terminus and C-terminus assumed) | 380 ± 140 | 2000 (≈ 1.34 mM) | 5000 (≈ 3.34 mM) | – | –
CC(C)C[C@H](NC(=O)[C@H](Cc1c[nH]c2ccccc12)NC(=O)[C@H](C)NC(=O)[C@@H](N)CCCCNC(=O)CCCC[C@@H]1SC[C@@H]2NC(=O)N[C@@H]21)C(=O)N[C@@H](C)C(=O)N[C@@H](Cc1ccc(O)cc1)C(=O)N1CCC[C@H]1C(=O)N[C@@H](CC(=O)O)C(=O)N[C@@H](CO)C(=O)N[C@H](C(=O)N1CCC[C@H]1C(=O)N[C@@H](Cc1ccc(O)cc1)C(=O)N[C@@H](CCCNC(=N)N)C(=O)N1CCC[C@H]1C(=O)N[C@@H](CCCCN)C(N)=O)C(C)C [K-bioA-WLA-YRPKam] | – | – | 10000 (≈ 4.96 mM) | 10000 (≈ 4.96 mM) | –
CSCC[C@H](NC(=O)[C@@H]1CCCN1C(=O)[C@@H](NC(=O)[C@H](CO)NC(=O)[C@H](CC(=O)O)NC(=O)[C@@H]1CCCN1C(=O)[C@H](Cc1ccc(O)cc1)NC(=O)[C@H](C)NC(=O)[C@H](CO)NC(=O)[C@@H](N)Cc1ccc(O)cc1)C(C)C)C(N)=O [YSA1-10am] | – | 10000 (≈ 8.86 mM) | 10000 (≈ 8.86 mM) | – | –
CC(C)C[C@H](NC(=O)[C@H](Cc1c[nH]c2ccccc12)NC(=O)CCN)C(=O)N[C@@H](C)C(=O)N[C@@H](Cc1ccc(O)cc1)C(=O)N1CCC[C@H]1C(=O)N[C@@H](CC(=O)O)C(=O)N[C@@H](CO)C(=O)N[C@H](C(=O)N1CCC[C@H]1C(=O)N[C@@H](Cc1ccc(O)cc1)C(=O)NCC(=O)N[C@@H](CO)C(=O)N[C@@H](CCCCNC(=O)CCCC[C@@H]1SC[C@@H]2NC(=O)N[C@@H]21)C(=O)O)C(C)C [βA-WLA-YGSK-bio] (H-[βAla]WLAYPDSVPYGSK(Biotin)-OH; N-terminus and C-terminus assumed) | 400 ± 70 | – | – | – | –
CC(C)C[C@H](NC(=O)[C@H](Cc1c[nH]c2ccccc12)NC(=O)CCN)C(=O)N[C@@H](C)C(=O)N[C@@H](Cc1ccc(O)cc1)C(=O)N1CCC[C@H]1C(=O)N[C@@H](CC(=O)O)C(=O)N[C@@H](CO)C(=O)N[C@H](C(=O)N1CCC[C@H]1C(=O)N[C@@H](Cc1ccc(O)cc1)C(=O)N[C@@H](CCCNC(=N)N)C(=O)O)C(C)C [βA-WLA-YR] (HELM PEPTIDE1{[bAla].W.L.A.Y.P.D.S.V.P.Y.R}$$$$V2.0; N-terminus and C-terminus assumed) | 390 ± 30 | 5000 (≈ 3.48 mM) | 5000 (≈ 3.48 mM) | – | –
CSCC[C@H](NC(=O)[C@H](CCSC)NC(=O)[C@@H]1CCCN1C(=O)[C@@H](NC(=O)[C@H](CO)NC(=O)[C@H](CC(=O)O)NC(=O)[C@@H]1CCCN1C(=O)[C@H](Cc1ccc(O)cc1)NC(=O)[C@H](C)NC(=O)[C@H](CO)NC(=O)[C@@H](N)Cc1ccc(O)cc1)C(C)C)C(=O)N[C@@H](CO)C(=O)NCC(=O)N[C@@H](CO)C(=O)NCC(=O)N[C@@H](CO)C(=O)N[C@@H](CCCCN)C(=O)O [YSA-GSGSK] | 4500 | 5000 (≈ 2.83 mM) | 10000 (≈ 5.67 mM) | – | –
CSCC[C@H](NC(=O)[C@@H]1CCCN1C(=O)[C@@H](NC(=O)[C@H](CO)NC(=O)[C@H](CC(=O)O)NC(=O)[C@@H]1CCCN1C(=O)[C@H](Cc1ccc(O)cc1)NC(=O)[C@H](C)NC(=O)[C@H](CC(C)C)NC(=O)[C@H](Cc1c[nH]c2ccccc12)NC(=O)CCN)C(C)C)C(N)=O [βA-WLAam] (HELM PEPTIDE1{[bAla].W.L.A.Y.P.D.S.V.P.M.[am]}$$$$V2.0; N-terminus assumed) | 840 ± 80 | 10000 (≈ 8.01 mM) | 10000 (≈ 8.01 mM) | – | –
CC(C)C[C@H](NC(=O)[C@H](Cc1c[nH]c2ccccc12)NC(=O)CCN)C(=O)N[C@@H](C)C(=O)N[C@@H](Cc1ccc(O)cc1)C(=O)N1CCC[C@H]1C(=O)N[C@@H](CC(=O)O)C(=O)N[C@@H](CO)C(=O)N[C@H](C(=O)N1CCC[C@H]1C(=O)N[C@@H](Cc1ccc(O)cc1)C(=O)N[C@@H](CO)C(=O)N[C@@H](CCCCNC(=O)CCCC[C@@H]1SC[C@@H]2NC(=O)N[C@@H]21)C(=O)O)C(C)C [βA-WLA-YSK-bio] (H-[βAla]WLAYPDSVPYSK(Biotin)-OH; N-terminus and C-terminus assumed) | – | – | 2000 (≈ 1.16 mM) | – | –
O=C(O)CCCC[C@@H]1SC[C@@H]2NC(=O)N[C@@H]21 [biotin, reference compound] | – | – | – | – | did not detect binding
CC(C)C[C@H](NC(=O)[C@H](Cc1c[nH]c2ccccc12)NC(=O)[C@H](C)NC(=O)CNC(=O)[C@@H](N)CSCC(N)=O)C(=O)N[C@@H](C)C(=O)N[C@@H](Cc1ccc(O)cc1)C(=O)N1CCC[C@H]1C(=O)N[C@@H](CC(=O)O)C(=O)N[C@@H](CO)C(=O)N[C@H](C(=O)N1CCC[C@H]1C(=O)N[C@@H](Cc1ccc(O)cc1)C(=O)N[C@@H](CCCNC(=N)N)C(=O)N1CCC[C@H]1C(=O)N[C@@H](CCCCNC(=O)CCCC[C@@H]1SC[C@@H]2NC(=O)N[C@@H]21)C(=O)O)C(C)C [CcamGA-WLA-YRPK-bio] | – | – | < 100 | – | –
CC(C)C[C@H](NC(=O)[C@H](Cc1c[nH]c2ccccc12)NC(=O)CCN)C(=O)N[C@@H](C)C(=O)N[C@@H](Cc1ccc(O)cc1)C(=O)N1CCC[C@H]1C(=O)N[C@@H](CC(=O)O)C(=O)N[C@@H](CO)C(=O)N[C@H](C(=O)N1CCC[C@H]1C(=O)N[C@@H](Cc1ccc(O)cc1)C(=O)NCC(=O)N[C@@H](CO)C(=O)NCC(=O)N[C@@H](CCCCNC(=O)CCCC[C@@H]1SC[C@@H]2NC(=O)N[C@@H]21)C(=O)O)C(C)C [βA-WLA-YGSGK-bio] (H-[βAla]WLAYPDSVPYGSGK(Biotin)-OH; N-terminus and C-terminus assumed) | 330 ± 40 | 5000 (≈ 2.72 mM) | 5000 (≈ 2.72 mM) | – | –
CSCC[C@H](NC(=O)[C@H](CCSC)NC(=O)[C@@H]1CCCN1C(=O)[C@@H](NC(=O)[C@H](CO)NC(=O)[C@H](CC(=O)O)NC(=O)[C@@H]1CCCN1C(=O)[C@H](Cc1ccc(O)cc1)NC(=O)[C@H](C)NC(=O)[C@H](CO)NC(=O)[C@@H](N)Cc1ccc(O)cc1)C(C)C)C(=O)N[C@@H](CO)C(=O)N[C@@H](CCCCNC(=O)CCCC[C@@H]1SC[C@@H]2NC(=O)N[C@@H]21)C(=O)O [YSA-K-bio] | – | 10000 (≈ 5.88 mM) | 10000 (≈ 5.88 mM) | – | –
